Where “and” joins values, the source holds several entries; their conditions need not be identical. Identical values can stand only once. Counter-ions that a name gives are not always drawn. Like-named read-outs stand apart in the source and are kept apart here.
Experiments:
[1] = biological target: T1, rat mGlu1a receptor (Rattus norvegicus, UniProt P23385); assay: [3H]quisqualate binding to rat mGlu1a receptor CHO-dhfr− membranes (saturation, inhibition); conditions: rat mGlu1a receptor CHO-dhfr− membranes; for Hill coefficient / Ki: inhibition of [3H]quisqualate binding, mean ± SD of 2 experiments
T1 construct: host or cells: CHO-dhfr- cells

[2] = biological target: T1, rat mGlu1a receptor; assay: [3H]Compound A binding to rat mGlu1a receptor CHO-dhfr− membranes (saturation, kinetics, inhibition); conditions: for inhibition of [3H]Compound A binding (in words): rat mGlu1a receptor CHO-dhfr− membranes; for Ki: 2.5 nM [3H]Compound A, 30 min at 4° C.
[3] = biological target: T2, cloned rat mGlu1 receptor (Rattus norvegicus, UniProt P23385); assay: Signal transduction at the cloned rat mGlu1 receptor in CHO cells (glutamate-induced Ca2+ rise, FLIPR); format: cell-based
T2 construct: expressed in transfected cells; host or cells: CHO cells

[4] = biological target: mGlu1 receptor (Rattus norvegicus, UniProt P23385); assay: [3H]Compound A binding to rat brain membranes (cortex, hippocampus, striatum, cerebellum); conditions: tested up to 30 μM
Method: Tissue preparation. Male Wistar rats (˜200 g) were sacrificed by decapitation. The brains were rapidly removed and cortex, hippocampus, striatum and cerebellum were immediately dissected. The fresh tissue was homogenized with an Ultra Turrax in 20 volumes of 50 mM Tris-HCl, pH 7.4 and tissue was centrifuged at 23,500 g for 10 min. After homogenisation using a DUAL homogeniser, membranes were washed twice by centrifugation at 23,500 g for 10 min. The final pellet was suspended in 10 volumes of 50 mM Tris-HCl, pH 7.4 and frozen at −80° C.
In vitro binding assay. After thawing, membranes from rat cortex, cerebellum, striatum and hippocampus were rehomogenized using a DUAL and suspended in ice-cold binding buffer containing 50 mM Tris-HCl, 1.2 mM MgCl2, 2 mM CaCl2, pH 7.4. The binding assay was carried out in a total volume of 0.5 ml containing 2.5 nM [^3H]Compound A and a membrane aliquot corresponding to 40 μg for cerebellar membranes, 60 μg for hippocampal membranes, 80 μg for striatal membranes or 150 μg for cortical membranes. […] After incubation for 30 min at 4° C., the labelled membranes were washed and harvested by rapid vacuum filtration over Whatman GF/C glass-fibre filters using a 40-well filtration manifold and radioactivity collected on the filters was counted as above.
Data analysis was performed using the GraphPad Prism program (GraphPad Prism Software, Inc., San Diego, Calif.). Saturation binding experiments were analysed using a non-linear regression analysis. Inhibition curves were fitted using non-linear regression analysis fitting the one-site competition equation: Y=Bottom+((Top−Bottom)/1+10^X-LogIC50). Ki values were calculated using the Cheng-Prusoff equation: Ki=IC50/[1+([C]/KD)] where C is the concentration of radioligand and KD is the dissociation constant of the radioligand (Cheng and Prusoff, Biochem. Pharmacol. 22, 3099-3108, 1973). The observed on (kob) and off (koff) rate were calculated from association-dissociation curves using the one-phase-exponential association and decay equations in the Prism program, respectively. kon was calculated by subtracting koff from kob and dividing by the radioligand concentration. The two-tailed Student's t-test was used for statistical evaluation of the binding data: * p<0.05, ** p<0.01 and *** p<0.001. The Dunnett's t-test following a 2-way analysis of variance (with as factors compound concentration and experiment) were used to analyse the data from the IP experiments.

[5] = inhibition of glutamate-induced intracellular Ca2+ rise, CHO cells expressing mGlu1 receptor, compounds with pIC50 between 7 and 8
[6] = 50% inhibition of the glutamate-induced intracellular Ca2+ rise, CHO cells, FLIPR

T1 sequence (P23385 19-1199): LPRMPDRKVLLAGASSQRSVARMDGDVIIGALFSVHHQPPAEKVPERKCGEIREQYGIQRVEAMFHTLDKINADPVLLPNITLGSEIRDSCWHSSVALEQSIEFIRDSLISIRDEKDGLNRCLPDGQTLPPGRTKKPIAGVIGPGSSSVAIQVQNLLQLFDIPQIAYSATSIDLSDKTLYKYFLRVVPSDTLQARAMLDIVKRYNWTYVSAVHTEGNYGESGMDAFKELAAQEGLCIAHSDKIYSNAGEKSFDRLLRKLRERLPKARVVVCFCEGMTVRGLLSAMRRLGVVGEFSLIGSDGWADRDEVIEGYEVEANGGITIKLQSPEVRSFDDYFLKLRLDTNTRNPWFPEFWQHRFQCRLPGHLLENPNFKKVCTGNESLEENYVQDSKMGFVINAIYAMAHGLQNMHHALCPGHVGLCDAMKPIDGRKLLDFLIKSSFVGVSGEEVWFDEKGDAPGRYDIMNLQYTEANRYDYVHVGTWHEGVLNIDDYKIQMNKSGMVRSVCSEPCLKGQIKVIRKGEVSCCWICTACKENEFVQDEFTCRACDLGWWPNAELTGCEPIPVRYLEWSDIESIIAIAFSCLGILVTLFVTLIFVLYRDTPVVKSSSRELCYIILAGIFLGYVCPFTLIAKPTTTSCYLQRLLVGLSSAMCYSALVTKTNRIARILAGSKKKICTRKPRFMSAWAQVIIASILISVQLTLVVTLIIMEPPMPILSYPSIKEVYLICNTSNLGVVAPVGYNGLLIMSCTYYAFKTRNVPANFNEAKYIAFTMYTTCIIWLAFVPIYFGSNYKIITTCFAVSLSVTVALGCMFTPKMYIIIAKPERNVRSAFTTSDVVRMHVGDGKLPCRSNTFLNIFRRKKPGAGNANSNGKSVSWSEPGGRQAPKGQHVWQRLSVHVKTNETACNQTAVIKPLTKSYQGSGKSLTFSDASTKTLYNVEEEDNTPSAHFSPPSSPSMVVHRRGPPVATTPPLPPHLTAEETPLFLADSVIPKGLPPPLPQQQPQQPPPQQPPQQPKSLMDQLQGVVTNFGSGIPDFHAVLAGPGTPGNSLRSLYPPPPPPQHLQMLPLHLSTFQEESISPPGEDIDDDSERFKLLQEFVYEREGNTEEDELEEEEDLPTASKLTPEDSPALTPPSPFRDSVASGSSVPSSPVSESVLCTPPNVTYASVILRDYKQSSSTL
T2 sequence (P23385 19-1199): as above

SMILES | melting point | IC50 [3, 5] | also measured
CCc1cc2cc(C(=O)[C@H]3CC[C@@H](OC)CC3)ccc2nc1I [Compound 21] | 110 °C | – | –
CCc1cc2cc(C(=O)[C@H]3CC[C@@H](OC)CC3)ccc2nc1NCCOC [Compound 10] | 115 °C | – | –
N[C@@]1(C(=O)O)CC[C@@H](C(=O)O)C1 [1S,3R-ACPD, reference compound] | – | – | Hill coefficient [1]: 0.97 ± 0.01; inhibition of [3H]Compound A binding (in words) [2]: did not inhibit
CCc1cc2cc(C(=O)C3CCC(OC)CC3)ccc2nc1C#C[Si](C)(C)C (centres unmarked) [Compound 14] | 114 °C | – | IC50 [3]: 0.0631 µM
CCc1cc2cc(C(=O)C3CCC(OC)CC3)ccc2n2nnnc12 (centres unmarked) [Compound 35] | 160 °C | 0.0437 µM | –
N[C@H](C(=O)O)c1ccc(C(=O)O)c(O)c1 [(S)-4C3HPG] | – | – | Hill coefficient [1]: 0.98 ± 0.02; Ki [1]: 1.65 ± 0.06 µM; Ki ([2]; mean ± SD of 3–4 experiments): > 1e+06 nM
CCc1cc2cc(C(=O)[C@H]3CC[C@H](OC)CC3)ccc2nc1F [Compound 20] | 114 °C | – | –
N[C@H](C(=O)O)c1ccc(C(=O)O)c(O)c1 [(S)-4C-3HPG, reference compound] | – | – | inhibition of [3H]Compound A binding (in words) [2]: did not inhibit
N[C@H](C(=O)O)c1ccc(C(=O)O)cc1 [(S)-4CPG, reference compound] | – | – | Hill coefficient [1]: 0.98 ± 0.00; Ki [1]: 4.51 ± 0.78 µM; Ki ([2]; mean ± SD of 3–4 experiments): > 1e+06 nM; inhibition of [3H]Compound A binding (in words) [2]: did not inhibit
Cc1cc(C(=O)O)ccc1[C@H](N)C(=O)O [LY367385, reference compound] | – | – | Hill coefficient [1]: 0.99 ± 0.01; Ki [1]: 1.18 ± 0.47 µM; Ki ([2]; mean ± SD of 3–4 experiments): > 1e+06 nM; inhibition of [3H]Compound A binding (in words) [2]: did not inhibit
CCc1cnc2ccc(C(=O)C3CCC(OC)CC3)cc2c1 (centres unmarked) [Compound 25] | 88 °C | – | –
CCc1cc2cc(C(=O)[C@H]3CC[C@@H](OC)CC3)ccc2nc1Cl [Compound 4] | 123 °C | – | –
O=C(NC12CC3CC(CC(C3)C1)C2)c1cnc2ccccc2n1 [NPS 2390, reference compound] | – | – | Ki [1]: > 1000 µM; effect on [3H]quisqualate binding (in words) [1]: did not affect; Ki ([2]; mean ± SD of 3–4 experiments): 1.36 ± 0.5 nM; Hill coefficient ([2]; inhibition of [3H]Compound A-binding, mean ± SD of 3–4 experiments): 0.97 ± 0.02
N[C@H](C(=O)O)c1cc(O)cc(O)c1 [(S)-3,5-DHPG, reference compound] | – | – | Hill coefficient [1]: 0.97 ± 0.00; Ki [1]: 1.42 µM; Ki ([2]; mean ± SD of 3–4 experiments): > 1e+06 nM; inhibition of [3H]Compound A binding (in words) [2]: did not inhibit
CCc1cc2cc(C(=O)C3CCC(OC)CC3)ccc2[nH]c1=O (centres unmarked) [Compound 9] | 226 °C | – | –
CCc1cc2cc(C(=O)C3CCC(OC)CC3)ccc2nc1F (centres unmarked) [Compound 19] | 92 °C | – | –
NC1(C(=O)O)CCc2cc(C(=O)O)ccc21 (centres unmarked) [AIDA, reference compound] | – | – | Hill coefficient [1]: 0.98 ± 0.03; Ki [1]: 98.3 ± 15.4 µM; Ki ([2]; mean ± SD of 3–4 experiments): > 1e+06 nM; inhibition of [3H]Compound A binding (in words) [2]: did not inhibit
N[C@@H](Cn1oc(=O)[nH]c1=O)C(=O)O [quisqualate, reference compound] | – | – | Hill coefficient [1]: 0.98 ± 0.01; inhibition of [3H]Compound A binding (in words) [2]: did not inhibit
CCc1cc2cc(C(=O)C3CCC(OC)CC3)ccc2nc1C(C)=O (centres unmarked) [Compound 6] | 108 °C | – | –

SMILES | melting point | IC50 [3, 5] | also measured
Cc1cccc(C#Cc2ccccc2)n1 [MPEP, reference compound] | – | – | effect on [3H]Compound A binding to rat cerebellar membranes [4]: did not affect
C#Cc1nc2ccc(C(=O)C3CCC(OC)CC3)cc2cc1CC (centres unmarked) [Compound 15] | 132 °C and 133 °C | 0.0117 µM | –
CCc1cc2cc(/C(=N\N)C3CCC(OC)CC3)ccc2nc1OC (centres unmarked) [Compound 53] | 110 °C | – | –
COc1nc2ccc(C(=O)[C@H]3CC[C@@H](OC)CC3)cc2cc1C [Compound 98] | – | 0.0269 µM | –
CO[C@H]1CC[C@@H](C(=O)c2ccc3nc4c(cc3c2)CCS4)CC1 [Compound 416] | – | – | IC50 [3, 6]: 0.00259 µM
O=C(c1ccc2nc3c(cc2c1)CCCO3)C12CC3CC(CC(C3)C1)C2 [Compound 433] | – | 0.0162 µM | –
CCc1cc2cc(C(=O)[C@H]3CC[C@H](OC)CC3)ccc2nc1C [Compound 131] | – | 0.0646 µM | –
CCc1cc2cc(C(=O)[C@H]3CC[C@@H](OC)CC3)ccc2nc1C#N [Compound 22] | 138 °C | – | –
CCc1cc2cc(C(=O)C3CCC(OC)CC3)c(C)cc2nc1Cl (centres unmarked) [Compound 210] | – | – | IC50 [3, 6]: 0.00484 µM
O=C(Cc1ccccc1F)c1ccc2nc3c(cc2c1)CCCS3 [Compound 499] | – | – | IC50 [3, 6]: 0.01 µM
O=C(CC1(F)CC2CCC1C2)c1ccc2nc3c(cc2c1)CCCO3 (centres unmarked) [Compound 482] | – | 0.0457 µM | –
CCc1cc2cc(C(=O)[C@H]3CCC[C@H](OC)C3)ccc2nc1Cl (relative stereo) [Compound 239] | – | 0.02 µM | –
CCc1cc2cc(C(=O)[C@H]3CC[C@@H](OC)CC3)c(C)cc2[nH]c1=O [Compound 419] | – | – | IC50 [3, 6]: 0.00861 µM
O=C(c1ccc2nc3c(cc2c1)CCCO3)C1CC2CCC1O2 (centres unmarked) [Compound 457] | – | 0.0724 µM | –
CC1(C(=O)c2ccc3nc4c(cc3c2)CCCO4)CC2CCC1C2 (centres unmarked) [Compound 494] | – | 0.0295 µM | –
Cc1cc2cc(C(=O)C3CCCCC3)ccc2[nH]c1=O [Compound 50, 6-(cyclohexylcarbonyl)-3-methyl-2(1H)-quinolinone] | 256.1 °C | – | –
CCc1cc2cc(C(=O)[C@H]3CC[C@H](OC)CC3)c(C)cc2[nH]c1=O [Compound 213] | – | 0.02 µM | –
CCc1cc2cc(C(=O)CC3CCCCC34OCCO4)ccc2nc1Cl (centres unmarked) [Compound 243] | – | 0.0513 µM | –

More lines, main results first:

melting point | IC50 [3, 5] | SMILES | also measured
140 °C | – | CCc1cc2cc(/C=C/c3ccccc3)ccc2nc1C [Compound 471] | –
82 °C | – | CCc1cc2cc(C(=O)CC(C)C)ccc2nc1Cl [Compound 2] | –
113 °C | – | CCc1cc2cc(C(=O)C3CCC(OC)CC3)ccc2nc1-c1ccsc1 (centres unmarked) [Compound 31] | –
108 °C | – | C=Cc1nc2ccc(C(=O)C3CCC(OC)CC3)cc2cc1CC (centres unmarked) [Compound 28] | –
248 °C | – | CCc1cc2cc(-c3cc4c(o3)CCCC4)ccc2nc1C (as salt: HCl) [Compound 526] | –
136 °C | – | CCOC(=O)c1cc2cc(C(=O)Cc3ccccc3)ccc2nc1C [Compound 306] | –
– | 0.0589 µM | CCCO[C@H]1CC[C@@H](C(=O)c2ccc3nc(C)c(CC)cc3c2)CC1 [Compound 255] | –
110 °C | – | CCc1cc2cc(C(=O)C3CCC(OC)CC3)ccc2nc1C (centres unmarked) [Compound 27] | pIC50 [3, 6]: 8.527
134 °C | – | CCc1cc2cc(-c3cc4ccccc4o3)ccc2nc1C [Compound 515] | –
145 °C | – | CCc1cc2cc(C(=O)C3Cc4ccccc4C3)ccc2nc1Cl [Compound 3] | –
– | 0.0214 µM | CCc1cc2cc(C(=O)C3CCCC(OC)C3)ccc2nc1C (centres unmarked) [Compound 241] | –
142 °C | – | CCc1cc2cc(C(=O)C3CCC(OC)CC3)ccc2nc1-c1cccs1 (centres unmarked) [Compound 30] | –
– | 0.0955 µM | CCCc1cc2cc(C(=O)C3CC4CCC3C4)ccc2nc1C (centres unmarked) [Compound 318] | –
112 °C | – | CCc1cc2cc(C(=O)C3CCC(OC)CC3)ccc2nc1-c1ccccc1 (centres unmarked) [Compound 29] | –
185 °C | – | c1ccc2c(-c3ccc4nc5c(cc4c3)CCS5)noc2c1 [Compound 514] | –
– | 0.0479 µM | O=C(Cc1cccc(F)c1)c1ccc2nc3c(cc2c1)CCCO3 [Compound 473] | –
– | 0.0105 µM | O=C(Cc1ccccc1)c1ccc2nc3c(cc2c1)CCO3 [Compound 463] | –
– | 0.0891 µM | CCc1cc2cc(C(=O)C3CC=CCC3)ccc2nc1C (centres unmarked) [Compound 112] | –
– | 0.0457 µM | CCc1cc2cc(C(=O)C3CC4CC3CC4O)ccc2nc1Cl (centres unmarked) [Compound 280] | –
– | 0.0676 µM | CCc1cc2cc(C(=O)C3CCC(OC)CC3)ccc2nc1NC(=O)CSCc1ccccc1 (centres unmarked) [Compound 332] | –
– | 0.0603 µM | CCc1cc2cc(C(=O)Cc3ccsc3)ccc2nc1Cl [Compound 296] | –
– | 0.0525 µM | CCc1cc2cc(C(=O)C3CCC(OC)CC3)ccc2nc1NC(=O)c1ccc(OC)cc1 (centres unmarked) [Compound 323] | –
– | 0.0112 µM | O=C(Cc1ccccc1)c1ccc2nc3c(cc2c1)CCS3 [Compound 441] | –

— patent US7517517B2 (Janssen Pharmaceutica N.V., priority 2002, dated 2009)
